Measurements reported in patent US7553843B2, “Process for the preparation of purified crystalline CCI-779” (Wyeth, priority 2005, dated 2009).

What was measured:
[1] = Storage stability of purified crystalline CCI-779, HPLC strength; type: physicochemical
Source text: The good crystallinity of the purified CCI-779 contributes to the improved stability of the purified CCI-779 and longer shelf life, and contains less oxidative impurities. In one embodiment, the purified crystalline CCI-779 of the present invention degrades less than about 3%, less than about 2%, or less than about 1% over a period of about 1 month. Desirably, the purified crystalline CCI-779 retains greater than 97% strength over a period of about 3 months, and more desirably about 6 months at about 5° C. as measured by high performance liquid chromatography (HPLC), among other techniques. The strength is similarly maintained at elevated temperatures up to about 70° C., desirably up to about 51° C., more desirably temperatures up to about 25° C. and greater relative humidities up to about 60%, and most desirably temperatures at about 5° C., or combinations thereof. In one embodiment, the purified crystallized CCI-779 prepared according to the present invention maintains its stability at a temperature of about 25° C. and relative humidity of about 60% for up to about 3 months, and more desirably up to about 6 months.
Following nucleation, the batch was aged for 34 minutes as indicated by the FBRM® instrument to obtain stabilization of the chord count. The pentanediol and heptane were added as described in Example 1. The isolated purified crystalline CCI-779 was washed and dried at 40 EC under vacuum for 48 hours. A yield of 176.3 g of purified crystalline CCI-779 was obtained (87.6%). See Table 1 for the HPLC data for the purified CCI-779 obtained immediately after crystallization and samples tested after 2 weeks and 1 month at varying conditions.
This example was performed using the same protocol as described in Example 2. However, filtration of the crude CCI-779 solution in acetone was completed in 30 minutes by using a medium grit fritted funnel. Following distillation of the acetone, the batch was held as an amorphous foam/oil for 2 hours under reduced pressures. Diethyl ether was then added to the foam/oil and the diethyl ether solution was evaluated for acetone content (8.5 vol %). The diethylether (containing acetone) was then removed by distillation to obtain an amorphous foam. This foam was maintained under reduced pressures for 30 minutes and diethyl ether again added. The diethylether was again monitored for acetone contact and determined to be less than 3.6 vol % acetone. The crystallization was the continued as in Example 2. The induction time for nucleation, i.e., the time required to obtain a chord count for particles of about 1 to about 5 μm particles of greater than about 1500 chords/s was 26 minutes. Following the nucleation, the slurry was stirred for additional time to ensure stabilization of the nucleation. Following isolation and drying as outlined above, a final yield of 175.1 g of purified crystalline CCI-779 was obtained (87.3%). See Table 2, for the HPLC data for the purified crystalline CCI-779 obtained immediately after crystallization and samples tested after 2 weeks and 1 month at varying conditions.

[2] = system: histologically diverse tumor cells; settings: in vitro, cited from earlier work
human tumor xenografts = settings: nude mice; cited from earlier work
orthotopic glioma model = settings: nude mice; cited from earlier work
[3] = system: human glioblastoma cell line; settings: in vitro; cited from earlier work

SMILES: CO[C@H]1C[C@@H]2CC[C@@H](C)[C@@](O)(O2)C(=O)C(=O)N2CCCC[C@H]2C(=O)O[C@H]([C@H](C)C[C@@H]2CC[C@@H](OC(=O)C(C)(CO)CO)[C@H](OC)C2)CC(=O)[C@H](C)/C=C(\C)[C@@H](O)[C@@H](OC)C(=O)[C@H](C)C[C@H](C)/C=C/C=C/C=C/1C [CCI-779, Rapamycin 42-ester with 3-hydroxy-2-(hydroxymethyl)-2-methylpropionic acid]
- HPLC Strength ([1]; Example 2 batch, Initial (immediately after crystallization)): 101.09%
- HPLC Strength ([1]; Example 2 batch, storage 5° C., 1 Month): 97.42%
- HPLC Strength ([1]; Example 2 batch, storage 5° C., 2 Weeks): 101.09%
- HPLC Strength ([1]; Example 2 batch, storage 25° C./60% RH, 1 Month): 97.87%
- HPLC Strength ([1]; Example 2 batch, storage 25° C./60% RH, 2 Weeks): 101.07%
- HPLC Strength ([1]; Example 3 batch, Initial (immediately after crystallization)): 100.45%
- HPLC Strength ([1]; Example 3 batch, storage 5° C., 1 Month): 97.55%
- HPLC Strength ([1]; Example 3 batch, storage 5° C., 2 Weeks): 100.45%
- HPLC Strength ([1]; Example 3 batch, storage 25° C./60% RH, 1 Month): 97.81%
- HPLC Strength ([1]; Example 3 batch, storage 25° C./60% RH, 2 Weeks): 101.30%
- growth of tumor cells ([2]; CNS cancer, T-cell leukemia, breast, prostate, melanoma lines most sensitive): inhibit the growth
- cell cycle effect [2]: arrested cells in the G1 phase
- activity against human tumor xenografts of diverse histological types (human tumor xenografts): has activity
- growth of several human pancreatic tumors and one of two breast cancer lines (human tumor xenografts): inhibited
- activity in orthotopic glioma model (orthotopic glioma model): active
- growth factor (platelet-derived)-induced stimulation of a human glioblastoma cell line [3]: markedly suppressed
